The values that follow come from patent publication US20040014676A1, “SRC kinase inhibitors useful for treating osteoporosis” (priority 2001, published 2004).

As a reminder, the IC50 is the point on the concentration scale where inhibition reaches its midpoint.

T1 sequence (P12931 whole entry): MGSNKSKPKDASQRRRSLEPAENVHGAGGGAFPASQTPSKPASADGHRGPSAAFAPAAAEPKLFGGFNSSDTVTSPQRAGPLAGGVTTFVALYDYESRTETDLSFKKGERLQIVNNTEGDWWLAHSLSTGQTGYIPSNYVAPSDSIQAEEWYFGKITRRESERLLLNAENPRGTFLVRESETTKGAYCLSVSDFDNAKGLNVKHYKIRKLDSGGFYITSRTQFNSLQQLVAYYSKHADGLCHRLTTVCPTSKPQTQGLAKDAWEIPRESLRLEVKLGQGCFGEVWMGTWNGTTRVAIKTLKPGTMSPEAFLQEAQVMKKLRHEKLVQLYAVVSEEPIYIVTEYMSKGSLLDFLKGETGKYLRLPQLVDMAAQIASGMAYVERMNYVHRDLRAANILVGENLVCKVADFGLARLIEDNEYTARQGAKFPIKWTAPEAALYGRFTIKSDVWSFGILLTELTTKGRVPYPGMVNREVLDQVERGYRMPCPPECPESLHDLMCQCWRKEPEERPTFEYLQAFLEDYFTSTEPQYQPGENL

This experiment has as its target T1, Src kinase (Homo sapiens, UniProt P12931).
T1 construct: purchased Upstate Bioteolnology (sic; Upstate Biotechnology); later HMR stock 27597-019E1 #14-117
In words: Phosphorylation assay of Src kinase inhibitors (radiometric, 96 well filter plate). It counts as biochemical. The conditions noted are these: duplicates, tested in the range of 400-0.098 µM; 10 µM peptide substrate (FIYGAFKKKKNH2), 5 µM unlabeled ATP, room temperature 30 min; read-out: IC50. In a few lines: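 Radiometric filter-plate assay: Src kinase (1:100 dilution) was incubated with 10 μM peptide FIYGAFKKK-NH2, 5 μM unlabeled ATP and radiolabeled ATP for 30 min at room temperature. Reactions were stopped with 150 mM H3PO4, the peptide was captured on phosphocellulose and scintillation counted. Ki values were determined for some compounds.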
Take `NCCCCC(NC(=O)c1cc2ccccc2cc1OCCCCNC(=O)[C@@H](N)Cc1ccc(O)cc1)C(N)=O` (stereo partly drawn) [Example 8, 3-[4-[[2(S)-AMINO-3-(4-HYDROXY- PHENYL)-1-OXOPROPYL]AMINO]- BUTOXY]-NAPHTHALENE-2-[N-[[(4- AMINOBUTYL)(AMIDO)]METHYL]- ACETAMIDO]CARBOXAMIDE]: the IC50 is 348 µM.
To `N=C(N)N[C@@H](Cc1ccc(O)cc1)C(=O)NCCCCOc1cc2ccccc2cc1C(=O)NCC(N)=O` [Example 73, 3-[4-[[[(1-OXO-2-[(N-AMINOIMINO- METHYL)(S)AMINO]-3-(4-HYDROXY- PHENYL)]PROPYL]AMINO]BUTOXY]- NAPHTHALENE-2-(N-ACETAMIDO)- CARBOXAMIDE] belongs 6 µM.
Turning to `NC(=O)CNC(=O)c1cc2ccccc2cc1OCCCCNC(=O)C1Cc2ccc(O)cc2CN1` (stereo not drawn) [Example 20, 3-[N-[[(7-HYDROXY)-1,2,3,4-TETRA- HYDROISOQUINOLIN-3-YL]- CARBONYL]AMINO]BUTOXY]- NAPHTHALENE-2-[N-(2- AMIDOMETHYL)]CARBOXAMIDE], the IC50 was 3.8 µM.
To `N#C/C(=C\c1ccc(O)cc1)C(=O)NCCCCOc1cc2ccccc2cc1C(=O)NCC(N)=O` [Example 149, 3-[[4-[N-[1-OXO-2-(CYANO)-3-(4- HYDROXYPHENYL)]PROPEN-2-YL]- AMINO] BUTOXY]-NAPHTHALENE-2- [N-ACETAMIDO]CARBOXAMIDE] belongs 27 µM.
`NC(=O)CNC(=O)c1cc2ccccc2cc1OCCCCNC(=O)[C@@H](N)Cc1cccs1` [Example 55, 3-[4-[[[2(S)-AMINO-3-(THIOPHEN-2-YL)- 1-OXO]PROPYL]AMINO]BUTOXY]- NAPHTHALENE-2-(N-ACETAMIDO)- CARBOXAMIDE]: the IC50 was determined as 1.35 µM.
To `N[C@@H](Cc1ccc(O)cc1)C(=O)NCCCOc1cc2ccccc2cc1C(=O)NCC(=O)NCCCO` [Example 7, 3-[3-[[2(S)-AMINO-3-(4-HYDROXY- PHENYL)-1-OXOPROPYL]AMINO]- PROPOXY]-N-[2-[(3-HYDROXY- PROPYL)AMINO]-2-OXOETHYL]-2- NAPHTHALENECARBOXAMIDE] belongs 45 µM.
For `NC(=O)CNC(=O)c1c(Cl)c(Cl)cc(Cl)c1OCCCCNC(=O)[C@@H](N)Cc1ccc(O)cc1` [Compound 136, (2S)-2-amino-N-(4-{2-[N-(carbamoylmethyl)carbamoyl]-3,4,6-trichlorophenoxy)butyl)-3-(4-hydroxyphenyl)propanamide], the IC50 was 200 µM.
To `NC(=O)CNC(=O)c1cc2ccccc2cc1OCCCCNC(=O)[C@@H](N)C(c1ccccc1)c1ccccc1` [Example 39, 3-[[4-[(2(S)-AMINO-3,3-BISPHENYL-1- OXO)PROPYL]AMINO]BUTOXY]- NAPHTHALENE-2-(N-ACETAMIDO)- CARBOXAMIDE] belongs 1.7 µM; to `CCC(C)[C@H](N)C(=O)NC(Cc1ccc(O)cc1)C(=O)NCCCCOc1cc2ccccc2cc1C(=O)NCC(N)=O` (stereo partly drawn) [Example 19], 12 µM; to `NC(=O)CNC(=O)c1cc2ccccc2cc1OCCCCNC(=O)[C@@H](N)Cc1ccccc1` [Example 14, 3-[4-[[2(S)-AMINO-3-(PHENYL)-1- OXOPROPYL]AMINO]BUTOXY]- NAPHTHALENE-2-[N-(2- AMIDOMETHYL)]CARBOXAMIDE], 0.98 µM.
As for `C[C@@H](c1ccc(O)cc1)[C@H](N)C(=O)NCCCCOc1cc2ccccc2cc1C(=O)NCC(N)=O` [Example 79, 3-[4-[[[(1-OXO-2(S)-AMINO-3(R)- METHYL-3-(4-HYDROXYPHENYL)]- PROPYL]AMINO]BUTOXY]- NAPHTHALENE-2-(N-ACETAMIDO)- CARBOXAMIDE], the figure is 6 µM.
As for `NC(=O)CNC(=O)c1cc2ccccc2cc1OCCCCN1CCNC(Cc2ccccc2)C1=O` (stereo in doubt) [Example 30, 3-[4-[(2-OXO-3-(R)-BENZYL)- PIPERAZIN-1-YL]BUTOXY]- NAPHTHALENE-2-(N- ACETAMIDO)CARBOXAMIDE], the figure is 8.8 µM; as for `Cc1nc(-c2ccc(CC(N)C(=O)NCCCCOc3cc4ccccc4cc3C(=O)NCC(N)=O)cc2)no1` (stereo in doubt) [Compound 135, (2S)-2-amino-N-(4-{3-[N-(carbamoylmethyl)carbamoyl](2-naphtyloxy)}butyl)-3-[4-(5-methyl(1,2,4-oxadizol-3-yl))phenyl]propanamide], 29 µM.
Take `NC(=O)CNC(=O)c1cc2ccccc2cc1OCCCCNC(=O)[C@H](Cc1ccc(O)cc1)NC(=O)c1ccccc1` [Example 17, 3-[4-[[2(S)-(N-BENZOYLAMINO)-3-(4- HYDROXYPHENYL)-1-OXOPROPYL]- AMINO]BUTOXY]-NAPHTHALENE-2- [N-(2-AMIDOMETHYL)]CARBOXAMIDE]: the IC50 was determined as 23 µM.
To `NC(=O)CNC(=O)c1cc2ccccc2cc1OCc1cccc(NC(=O)[C@@H](N)Cc2ccc(O)cc2)c1` [Example 96, 3-[3-[[[1-OXO-2(S)-AMINO-3-(4- HYDROXYPHENYL)]PROPYL]AMINO]- BENZYLOXY]NAPHTHALENE-2-(N- ACETAMIDO)CARBOXAMIDE] belongs 7.1 µM; to `NC(=O)CNC(=O)c1cc2ccccc2cc1OCCCCNC(=O)[C@H](N)Cc1ccc(O)cc1` [Example 56, 3-[4-[[[2(R)-AMINO-3-(4-HYDROXY- PHENYL-1-OXO]PROPYL]AMINO]- BUTOXY]-NAPHTHALENE-2-(N- ACETAMIDO)CARBOXAMIDE], 50 µM; to `NCCCCOc1cc2ccccc2cc1C(=O)NCC(N)=O` [Example 26, 3-(4-AMINOBUTOXY)-NAPHTHALENE- 2-[N-ACETAMIDO]CARBOXAMIDE], 25 µM.
As for `NC(=O)CNC(=O)c1cc2ccccc2cc1OCCCCNC(=O)C1(N)Cc2ccccc2C1` [Example 40, 3-[4-[n-[1-OXO-2-(2-AMINOINDAN-2- YL)]ETHYL]-AMINOBUTOXY]- NAPHTHALENE-2-(N- ACETAMIDO)CARBOXAMIDE], the figure is 12 µM.
